Assay results: patent US9451774B2, “Paddy rice seed treated by herbicidal composition and method for controlling weed” (MITSUI CHEMICALS AGRO, INC., priority 2013, dated 2016)

Assays:
Scirpus juncoides Roxb. [1] = test: Test Example 6: pot test, herbicide-treated seed, growth inhibition; assay type: in vivo; details: 20 days after sowing, dosage a.i. g per 1 kg of seeds: Pyrimisulfan 0.5, Pyriminobac-methyl 1.5, Butachlor 1.25
Description: (§3) In 100 cm^2 of a pot was filled a paddy field soil, and after paddling, seeds of Echinochloa oryzicola and Scirpus juncoides Roxb. were sown and mixed into the surface layer of the soil. Paddy rice seeds (variety: Nipponbare) sprouted into a pigeon breast shape were dust-coated with a predetermined amount of wettable powder each prepared according to Preparation examples 5, 6 and 9, and were sown onto the surface of the soil or into the soil (depth: 1 cm) at an amount of 10 grains/pot. After the sowing, water was introduced quietly and flooded up to 1 cm. After 20 days from the sowing, a growth inhibition rate was judged according to the above-mentioned judgement criteria.

Echinochloa oryzicola [2] = test: as above; assay type: in vivo; details: 20 days after sowing, dosage a.i. g per 1 kg of seeds: Pyrimisulfan 0.5, Pyriminobac-methyl 1.5, Butachlor 1.25
Description: as §3

Echinochloa oryzicola [3] = test: Test Example 7: pot test, seed dust-coated with COMMAND3ME, growth inhibition; assay type: in vivo; details: Surface sowing; 21 days after sowing; dosage 2.5 a.i. g per 1 kg of seeds (as COMMAND3ME)
Description: In 100 cm^2 of a pot was filled a paddy field soil, and after paddling, seeds of Echinochloa oryzicola was sown and mixed into the surface layer of the soil. Paddy rice seeds (variety: Nipponbare) sprouted into a pigeon breast shape were dust-coated with a predetermined amount of COMMAND3ME™ (clomazone: 31.4%, available from FMC Corporation), and were sown onto the surface of the soil at an amount of 10 grains/pot. After the sowing, water was introduced quietly and flooded up to 1 cm. After 21 days from the sowing, a growth inhibition rate was judged according to the above-mentioned judgement criteria.

Lindernia procumbens [4] = test: Test Example 1: pot test, herbicide-treated paddy rice seed, growth inhibition; assay type: in vivo; details: 30 days after sowing, dosage a.i. g per 1 kg of seeds: Pyrazolate 150, Compound (I) 37.5, Thenylchlor 0.63
Description: (§1) In 100 cm^2 of a pot was filled a paddy field soil, and after paddling, seeds of Monochoria vaginalis and Lindernia procumbens were sown and mixed into the surface layer of the soil. Paddy rice seeds (variety: Nipponbare) sprouted into a pigeon breast shape were dust-coated with a predetermined amount of wettable powder each prepared according to Preparation examples 1, 2 and 7, and were sown onto the surface of the soil or into the soil (depth: 1 cm) at an amount of 10 grains/pot. After the sowing, water was introduced quietly and flooded up to 1 cm. After 30 days from the sowing, a growth inhibition rate was judged according to the following judgement criteria.

Monochoria vaginalis [5] = test: as above; assay type: in vivo; details: 30 days after sowing, dosage a.i. g per 1 kg of seeds: Pyrazolate 150, Compound (I) 37.5, Thenylchlor 0.63
Description: as §1

[6] = system: Paddy rice (variety: Nipponbare); test: Test Example 1: pot test, growth inhibition (chemical damage) of the paddy rice; assay type: in vivo; details: 30 days after sowing, dosage a.i. g per 1 kg of seeds: Pyrazolate 150, Compound (I) 37.5, Thenylchlor 0.63
Description: as §1

Lindernia procumbens [7] = test: Test Example 2: pot test, iron powder-coated herbicide-treated seed, growth inhibition; assay type: in vivo; details: surface sowing, 21 days after sowing, dosage a.i. g per 1 kg of seeds: Pyrazolate 150, Compound (I) 38, Sulcotrione 1.0, Imazosulfuron 1.0
Procedure: (§2) Also, paddy rice seeds (variety: Koshihikari) dipped in 20° C. of water for 2 days were dust-coated with a mixture of iron powder and calcined gypsum (a mixing ratio of 10:1) with an amount of 100 g per 1 kg of the seeds (dried unhulled rice) to prepare iron powder-coated seeds.

Monochoria vaginalis [8] = test: as above; assay type: in vivo; details: surface sowing, 21 days after sowing, dosage a.i. g per 1 kg of seeds: Pyrazolate 150, Compound (I) 38, Sulcotrione 1.0, Imazosulfuron 1.0
Procedure: as §2

[9] = system: Paddy rice (variety: Koshihikari); test: Test Example 2: pot test, iron powder-coated seed, growth inhibition of the paddy rice; assay type: in vivo; details: surface sowing, 21 days after sowing, dosage a.i. g per 1 kg of seeds: Pyrazolate 150, Compound (I) 38, Sulcotrione 1.0, Imazosulfuron 1.0
Procedure: as §2

Scirpus juncoides Roxb. [10] = test: Test Example 5: pot test, herbicide-treated seed, growth inhibition; assay type: in vivo; details: 20 days after sowing, dosage a.i. g per 1 kg of seeds: Sulcotrione 1.0, Imazosulfuron 1.0, Oxadiargyl 0.15
Description: (§4) In 100 cm^2 of a pot was filled a paddy field soil, and after paddling, seeds of Lindernia procumbens and Scirpus juncoides Roxb. were sown and mixed into the surface layer of the soil. Paddy rice seeds (variety: Nipponbare) sprouted into a pigeon breast shape were dust-coated with a predetermined amount of wettable powder each prepared according to Preparation examples 3, 4 and 8, and were sown onto the surface of the soil or into the soil (depth: 1 cm) at an amount of 10 grains/pot. After the sowing, water was introduced quietly and flooded up to 1 cm. After 20 days from the sowing, a growth inhibition rate was judged according to the following judgement criteria.

Lindernia procumbens [11] = test: as above; assay type: in vivo; details: 20 days after sowing, dosage a.i. g per 1 kg of seeds: Sulcotrione 1.0, Imazosulfuron 1.0, Oxadiargyl 0.15
Description: as §4

[12] = system: Paddy rice (variety: Nipponbare); test: Test Example 6: pot test, growth inhibition of the paddy rice; assay type: in vivo; details: 20 days after sowing, dosage a.i. g per 1 kg of seeds: Pyrimisulfan 0.5, Pyriminobac-methyl 1.5, Butachlor 1.25
Description: as §3

[13] = system: Paddy rice (variety: Koshihikari); test: Test Example 3: pot test, iron powder-coated seed, growth inhibition of the paddy rice; assay type: in vivo; details: surface sowing, 22 days after sowing, dosage a.i. g per 1 kg of seeds: Pyrimisulfan 0.5, Pyriminobac-methyl 1.5
Procedure: as §2

Scirpus juncoides Roxb. [14] = test: Test Example 3: pot test, iron powder-coated herbicide-treated seed, growth inhibition; assay type: in vivo; details: surface sowing, 22 days after sowing, dosage a.i. g per 1 kg of seeds: Pyrimisulfan 0.5, Pyriminobac-methyl 1.5
Procedure: as §2

Echinochloa oryzicola [15] = test: as above; assay type: in vivo; details: surface sowing, 22 days after sowing, dosage a.i. g per 1 kg of seeds: Pyrimisulfan 0.5, Pyriminobac-methyl 1.5
Procedure: as §2

Lindernia procumbens [16] = test: Test Example 10: pot test, seed treated with herbicide with or without dymron, growth inhibition; assay type: in vivo; details: Surface sowing; 20 days after sowing; dosage a.i. g per 1 kg of seeds: Pyrimisulfan + Dymron 1 + 40, Pyrimisulfan 1
Description: as §1, with “5” for “1, 2”, “11,” for “7,”, “soil” for “soil or into the soil (depth: 1 cm)”, “20” for “30”, “above-mentioned” for “following”

Monochoria vaginalis [17] = test: as above; assay type: in vivo; details: Surface sowing; 20 days after sowing; dosage a.i. g per 1 kg of seeds: Pyrimisulfan + Dymron 1 + 40, Pyrimisulfan 1
Description: as §1, with “5” for “1, 2”, “11,” for “7,”, “soil” for “soil or into the soil (depth: 1 cm)”, “20” for “30”, “above-mentioned” for “following”

[18] = system: Paddy rice (variety: Nipponbare); test: Test Example 5: pot test, growth inhibition of the paddy rice; assay type: in vivo; details: 20 days after sowing, dosage a.i. g per 1 kg of seeds: Sulcotrione 1.0, Imazosulfuron 1.0, Oxadiargyl 0.15
Description: as §4

[19] = system: paddy rice varieties Habataki, Takanari, Momiroman, Mizuhochikara, Ruriaoba and Odorokimochi; details: Japanese Journal of Crop Science 79 (Extra 1); cited from earlier work
[20] = Surface sowing of treated rice seed

## CCCCOCN(C(=O)CCl)c1c(CC)cccc1CC [Butachlor, butachlor]
Scirpus juncoides Roxb. [1]; Sowing into soil (depth 1 cm)
  Growth inhibition rate, Scirpus juncoides Roxb.: 0 (Growth inhibition rate of 0 to 9%)
Scirpus juncoides Roxb. [1]; Surface sowing
  Growth inhibition rate, Scirpus juncoides Roxb.: 0 (Growth inhibition rate of 0 to 9%)
Echinochloa oryzicola [2]; Sowing into soil (depth 1 cm)
  Growth inhibition rate, Echinochloa oryzicola: 5 (Growth inhibition rate of 46 to 54%)
Echinochloa oryzicola [2]; Surface sowing
  Growth inhibition rate, Echinochloa oryzicola: 7 (Growth inhibition rate of 64 to 72%)

## CC1(C)CON(Cc2ccccc2Cl)C1=O [Clomazone, clomazone]
Echinochloa oryzicola [3]
  Growth inhibition rate, Echinochloa oryzicola: 9 (Growth inhibition rate of 82 to 90%)

## Cc1cccc(C2CC2)c1Oc1nnc(Cl)cc1OC(=O)N1CCOCC1 [Compound (I), 6-chloro-3-(2-cyclopropyl-6-methylphenoxy)pyridazin-4-yl morpholin-4-carboxylate]
Lindernia procumbens [4]; Sowing into soil (depth 1 cm)
  Growth inhibition rate, Lindernia procumbens: 8 (Growth inhibition rate of 73 to 81%)
Lindernia procumbens [4]; [20]
  Growth inhibition rate, Lindernia procumbens: 10 (Growth inhibition rate of 91 to 100%)
Monochoria vaginalis [5]; Sowing into soil (depth 1 cm)
  Growth inhibition rate, Monochoria vaginalis: 9 (Growth inhibition rate of 82 to 90%)
Monochoria vaginalis [5]; [20]
  Growth inhibition rate, Monochoria vaginalis: 10 (Growth inhibition rate of 91 to 100%)
[6]; Sowing into soil (depth 1 cm)
  Growth inhibition rate, Paddy rice: 5 (Growth inhibition rate of 46 to 54%)
[6]; Surface sowing
  Growth inhibition rate, Paddy rice: 0 (Growth inhibition rate of 0 to 9%)
Lindernia procumbens [7]
  Growth inhibition rate, Lindernia procumbens: 10 (Growth inhibition rate of 91 to 100%)
Monochoria vaginalis [8]
  Growth inhibition rate, Monochoria vaginalis: 10 (Growth inhibition rate of 91 to 100%)
[9]
  Growth inhibition rate, Paddy rice: 0 (Growth inhibition rate of 0 to 9%)

## COc1cc(OC)nc(NC(=O)NS(=O)(=O)c2c(Cl)nc3ccccn23)n1 [Imazosulfuron, imazosulfuron]
Scirpus juncoides Roxb. [10]; Sowing into soil (depth 1 cm)
  Growth inhibition rate, Scirpus juncoides Roxb.: 9 (Growth inhibition rate of 82 to 90%)
Scirpus juncoides Roxb. [10]; Surface sowing
  Growth inhibition rate, Scirpus juncoides Roxb.: 10 (Growth inhibition rate of 91 to 100%)
Lindernia procumbens [11]; Sowing into soil (depth 1 cm)
  Growth inhibition rate, Lindernia procumbens: 10 (Growth inhibition rate of 91 to 100%)
Lindernia procumbens [11]; Surface sowing
  Growth inhibition rate, Lindernia procumbens: 10 (Growth inhibition rate of 91 to 100%)
Lindernia procumbens [7]
  Growth inhibition rate, Lindernia procumbens: 10 (Growth inhibition rate of 91 to 100%)
Monochoria vaginalis [8]
  Growth inhibition rate, Monochoria vaginalis: 10 (Growth inhibition rate of 91 to 100%)

## CO/N=C(/C)c1cccc(Oc2nc(OC)cc(OC)n2)c1C(=O)OC [Pyriminobac-methyl, pyriminobac-methyl]
[12]; Sowing into soil (depth 1 cm)
  Growth inhibition rate, Paddy rice: 3 (Growth inhibition rate of 28 to 36%)
[12]; Surface sowing
  Growth inhibition rate, Paddy rice: 0 (Growth inhibition rate of 0 to 9%)
Scirpus juncoides Roxb. [1]; Sowing into soil (depth 1 cm)
  Growth inhibition rate, Scirpus juncoides Roxb.: 0 (Growth inhibition rate of 0 to 9%)
Scirpus juncoides Roxb. [1]; Surface sowing
  Growth inhibition rate, Scirpus juncoides Roxb.: 0 (Growth inhibition rate of 0 to 9%)
[13]
  Growth inhibition rate, Paddy rice: 0 (Growth inhibition rate of 0 to 9%)
Scirpus juncoides Roxb. [14]
  Growth inhibition rate, Scirpus juncoides Roxb.: 0 (Growth inhibition rate of 0 to 9%)
Echinochloa oryzicola [15]
  Growth inhibition rate, Echinochloa oryzicola: 10 (Growth inhibition rate of 91 to 100%)
Echinochloa oryzicola [2]; Sowing into soil (depth 1 cm)
  Growth inhibition rate, Echinochloa oryzicola: 10 (Growth inhibition rate of 91 to 100%)
Echinochloa oryzicola [2]; Surface sowing
  Growth inhibition rate, Echinochloa oryzicola: 10 (Growth inhibition rate of 91 to 100%)

## COCc1cccc(C(O)c2nc(OC)cc(OC)n2)c1NS(=O)(=O)C(F)F (stereo not shown) [Pyrimisulfan, pyrimisulfan]
Scirpus juncoides Roxb. [1]; Sowing into soil (depth 1 cm)
  Growth inhibition rate, Scirpus juncoides Roxb.: 10 (Growth inhibition rate of 91 to 100%)
Scirpus juncoides Roxb. [1]; Surface sowing
  Growth inhibition rate, Scirpus juncoides Roxb.: 10 (Growth inhibition rate of 91 to 100%)
Lindernia procumbens [16]
  Growth inhibition rate, Lindernia procumbens: 10 (Growth inhibition rate of 91 to 100%)
Monochoria vaginalis [17]
  Growth inhibition rate, Monochoria vaginalis: 10 (Growth inhibition rate of 91 to 100%)
Scirpus juncoides Roxb. [14]
  Growth inhibition rate, Scirpus juncoides Roxb.: 10 (Growth inhibition rate of 91 to 100%)
Echinochloa oryzicola [15]
  Growth inhibition rate, Echinochloa oryzicola: 10 (Growth inhibition rate of 91 to 100%)
Echinochloa oryzicola [2]; Sowing into soil (depth 1 cm)
  Growth inhibition rate, Echinochloa oryzicola: 8 (Growth inhibition rate of 73 to 81%)
Echinochloa oryzicola [2]; Surface sowing
  Growth inhibition rate, Echinochloa oryzicola: 10 (Growth inhibition rate of 91 to 100%)

## CS(=O)(=O)c1ccc(C(=O)C2C(=O)CCCC2=O)c(Cl)c1 [Sulcotrione, sulcotrione]
Scirpus juncoides Roxb. [10]; Sowing into soil (depth 1 cm)
  Growth inhibition rate, Scirpus juncoides Roxb.: 8 (Growth inhibition rate of 73 to 81%)
Scirpus juncoides Roxb. [10]; Surface sowing
  Growth inhibition rate, Scirpus juncoides Roxb.: 9 (Growth inhibition rate of 82 to 90%)
Lindernia procumbens [11]; Sowing into soil (depth 1 cm)
  Growth inhibition rate, Lindernia procumbens: 10 (Growth inhibition rate of 91 to 100%)
Lindernia procumbens [11]; Surface sowing
  Growth inhibition rate, Lindernia procumbens: 10 (Growth inhibition rate of 91 to 100%)
[18]; Sowing into soil (depth 1 cm)
  Growth inhibition rate, Paddy rice: 3 (Growth inhibition rate of 28 to 36%)
[18]; Surface sowing
  Growth inhibition rate, Paddy rice: 0 (Growth inhibition rate of 0 to 9%)
Lindernia procumbens [7]
  Growth inhibition rate, Lindernia procumbens: 10 (Growth inhibition rate of 91 to 100%)
Monochoria vaginalis [8]
  Growth inhibition rate, Monochoria vaginalis: 10 (Growth inhibition rate of 91 to 100%)
[9]
  Growth inhibition rate, Paddy rice: 0 (Growth inhibition rate of 0 to 9%)

## COc1ccsc1CN(C(=O)CCl)c1c(C)cccc1C [Thenylchlor, thenylchlor]
Lindernia procumbens [4]; Sowing into soil (depth 1 cm)
  Growth inhibition rate, Lindernia procumbens: 8 (Growth inhibition rate of 73 to 81%)
Lindernia procumbens [4]; [20]
  Growth inhibition rate, Lindernia procumbens: 9 (Growth inhibition rate of 82 to 90%)
Monochoria vaginalis [5]; Sowing into soil (depth 1 cm)
  Growth inhibition rate, Monochoria vaginalis: 6 (Growth inhibition rate of 55 to 63%)
Monochoria vaginalis [5]; [20]
  Growth inhibition rate, Monochoria vaginalis: 7 (Growth inhibition rate of 64 to 72%)
[6]; Sowing into soil (depth 1 cm)
  Growth inhibition rate, Paddy rice: 9 (Growth inhibition rate of 82 to 90%)
[6]; Surface sowing
  Growth inhibition rate, Paddy rice: 6 (Growth inhibition rate of 55 to 63%)

## CS(=O)(=O)c1ccc(C(=O)C2=C(Sc3ccccc3)C3CCC(C3)C2=O)c(Cl)c1 (stereo not shown) [benzobicyclon]
[19]
  Sensitivity of paddy rice variety to the herbicide: show sensitivity

## CS(=O)(=O)c1ccc(C(=O)C2C(=O)CCCC2=O)c([N+](=O)[O-])c1 [mesotrione]
[19]
  Sensitivity of paddy rice variety to the herbicide: show sensitivity

## oxadiargyl
Scirpus juncoides Roxb. [10]; Sowing into soil (depth 1 cm)
  Growth inhibition rate, Scirpus juncoides Roxb.: 1 (Growth inhibition rate of 10 to 18%)
Scirpus juncoides Roxb. [10]; Surface sowing
  Growth inhibition rate, Scirpus juncoides Roxb.: 2 (Growth inhibition rate of 19 to 27%)
Lindernia procumbens [11]; Sowing into soil (depth 1 cm)
  Growth inhibition rate, Lindernia procumbens: 10 (Growth inhibition rate of 91 to 100%)
Lindernia procumbens [11]; Surface sowing
  Growth inhibition rate, Lindernia procumbens: 10 (Growth inhibition rate of 91 to 100%)
